Experimental findings from patent US20130131062A1, “PYRIDAZINONES AND FURAN-CONTAINING COMPOUNDS” (priority 2006, published 2013) are described below.

Where two headings read alike, the source gives them in different places.

One assay relates to H1734. Description: Non Small Cell Lung Cancer Proliferation Assay (Alamar Blue), dose response. As to conditions: Homo sapiens, NCI-H1734, read-out: H1734 Dose Response (uM).
Assay [1] concerns 15 non small cell lung cancer lines representing various EGFR and KRAS mutations. Description: Dose response studies against 15 NSCLC lines (alamar blue). Format: cell-based, human. The note with it: 12 point doubling dilution 10 uM to 5 nM, alamar blue. As to the method:
Dose response studies against 34 compounds from the pyridazinone and phenylfuran-carboxamide class were conducted. […] In addition, Tarceva was included in these dose response studies.
The dose response studies were done with the following standard procedure. First, the cells were counted and dispensed at 250 cells/well into 384-well microplates with compound. The cells were incubated for 48 hours at 37 C to complete treatment, and then alamar blue was added for an additional 48 hours. Finally, alamar blue reduction was measured and the data was loaded into ORIS, our data screening acquisition platform.

Experimental for H1734: To perform the assay, the Non Small Cell Lung Cancer lines are diluted in media and plated into 384 well microplates at a final density of 250 cells in 45 μL.
After addition, the cells are placed in cell culture incubator at 37° C. for 48 hours for complete treatment.
After drug treatment, cytotoxicity is measured by Alamar Blue reduction.
The cells are incubated for 48 hours at 37° C. to complete the Alamar Blue reduction.
The final step in the assay is to measure the amount of Alamar Blue reduction. […] The Alamar Blue fluorescence is measured at an excitation of 530 nm and emission of 590 nm.
This assay was performed on a fully automated linear track robotic platform (CRS F3 Robot System, Thermo Electron Corp., Ontario, Canada) utilizing several integrated peripherals for plate handling, liquid dispensing, and readout detection. […] The microplates are then placed at 37° C. for 48 hours to complete treatment of cells with compounds. Next, 5 ul of alamar blue was added using a liquid dispenser (FlexDrop Precision Dispenser, Perkin Elmer, Mass., USA) and incubated for 48 hours at 37° C. The alamar blue prompt fluorescence was measured on Victor V (Victor^3 V, Perkin Elmer, Mass., USA) and output data files were loaded into ORIS (Oncology Research Informatics System, MSKCC, NY, USA), a screening data acquisition and analysis platform. […]

As for `Cc1ccccc1-n1ncc(Cl)c(Cl)c1=O` [compound 257017], the IC50 worked out at 3.2 µM in the assay with H1734; 1140 nM in assay [1] (HPL1D (SV40-immortalized human lung epithelian cells, EGFR WT, KRAS WT), read-out: IC50 HPL1D); 1700 nM in assay [1] (Homo sapiens, NCI-H358, H358 (EGFR WT, KRAS G12C), read-out: IC50 H358); 3680 nM in assay [1] (Homo sapiens, NCI-H460, H460 (EGFR WT, KRAS Q61H), read-out: IC50 H460); 470 nM in assay [1] (Homo sapiens, NCI-H820, H820 (EGFR T790M/DelE746-A750, KRAS WT), read-out: IC50 H820); 1670 nM in assay [1] (Homo sapiens, NCI-H1650, H1650 (EGFR DelE746-A750, KRAS WT), read-out: IC50 H1650). For the same compound, the IC50 in assay [1] (Homo sapiens, NCI-H1734, H1734 (EGFR WT, KRAS G13C), read-out: IC50 H1734) came out at 3200 nM; in assay [1] (Homo sapiens, NCI-H1975, H1975 (KRAS WT), read-out: IC50 H1975), 760 nM; in assay [1] (Homo sapiens, NCI-H2030, H2030 (EGFR WT, KRAS G12C), read-out: IC50 H2030), 1380 nM; in assay [1] (Homo sapiens, NCI-H2122, H2122 (EGFR WT, KRAS G12C), read-out: IC50 H2122) it was 2160 nM; in assay [1] (Homo sapiens, NCI-H2444, H2444 (EGFR WT, KRAS G12V), read-out: IC50 H2444) it was 1050 nM; in assay [1] (Homo sapiens, NCI-H3255, H3255 (EGFR L858R, KRAS WT), read-out: IC50 H3255), 3160 nM. Further, the IC50 in assay [1] (Homo sapiens, A549 (EGFR WT, KRAS G12S), read-out: IC50 A549) amounted to 2130 nM; in assay [1] (Homo sapiens, H23 (EGFR WT, KRAS G12C), read-out: IC50 H23), 310 nM; in assay [1] (Homo sapiens, H1118 (EGFR L858R, KRAS WT), read-out: IC50 H1118), 830 nM; in assay [1] (Homo sapiens, PC9 (EGFR DclE746-A750, KRAS WT), read-out: IC50 PC9), 2000 nM.
